From ChEMBL document CHEMBL1201862, “PubChem BioAssay data set” (2004)
Calls of active or inactive are those of the source.

Key:
[1] = viability of uninfected HEp-2 cells – cell-based, HTS, cytotoxicity control for RSV inhibitor project, dose response (AID 2410); type: functional; conditions: human respiratory syncytial virus
[2] = target: Luciferin 4-monooxygenase (Photinus pyralis, UniProt P08659); assay: inhibition of purified Photinus pyralis luciferase – biochemical, luminescence, dose response (AID 1891)
[3] = Luminescence Cell-Based Dose Confirmation HTS to Identify Inhibitors of Platelet Dense Granule Release. [Related pubchem assays: 1663 (Primary HTS), 1678 (Summary of Project)]; type: functional
[4] = target: FAD-linked sulfhydryl oxidase ALR (Homo sapiens, UniProt P55789); assay: ALR-catalysed DTT oxidation blockers – biochemical, H2O2 detection, luminescence, cherry-pick, dose response (AID 493248)
[5] = NIH-3T3 fibroblast cytotoxicity, dose response, cytotoxicity control, cell-based, fluorescence, Alamar Blue, secondary assay (AID 2327); type: functional;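 also: NIH-3T3 mouse fibroblasts cultured with fluconazole at 8 µg/mL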
[6] = Luminescence Cell-Based Dose Response HTS to Identify Activators of Luciferase Translation or Activity in H4 […] Cells. [Related pubchem assays: 1829 (Project Summary), 1814 (Primary HTS)]; type: functional
H4 = assay: Luminescence Cell-Based Dose Response HTS to Identify Activators of 5'UTR Stem-Loop Driven Prion Protein mRNA Translation in H4 Neuroglioblastoma Cells. [Related pubchem assays: 1829 (Project Summary), 1814 (Primary HTS)]; type: functional; conditions: Homo sapiens
[7] = target: T1, Rac GTPase-activating protein 1 (Homo sapiens, UniProt Q9H0H5); assay: blockers of MgcRacGAP-driven Rac1 GTP hydrolysis – biochemical, ADP Hunter fluorescence, primary and confirmatory, confirmation (AID 624330); type: functional
T1 sequence (Q9H0H5 whole entry): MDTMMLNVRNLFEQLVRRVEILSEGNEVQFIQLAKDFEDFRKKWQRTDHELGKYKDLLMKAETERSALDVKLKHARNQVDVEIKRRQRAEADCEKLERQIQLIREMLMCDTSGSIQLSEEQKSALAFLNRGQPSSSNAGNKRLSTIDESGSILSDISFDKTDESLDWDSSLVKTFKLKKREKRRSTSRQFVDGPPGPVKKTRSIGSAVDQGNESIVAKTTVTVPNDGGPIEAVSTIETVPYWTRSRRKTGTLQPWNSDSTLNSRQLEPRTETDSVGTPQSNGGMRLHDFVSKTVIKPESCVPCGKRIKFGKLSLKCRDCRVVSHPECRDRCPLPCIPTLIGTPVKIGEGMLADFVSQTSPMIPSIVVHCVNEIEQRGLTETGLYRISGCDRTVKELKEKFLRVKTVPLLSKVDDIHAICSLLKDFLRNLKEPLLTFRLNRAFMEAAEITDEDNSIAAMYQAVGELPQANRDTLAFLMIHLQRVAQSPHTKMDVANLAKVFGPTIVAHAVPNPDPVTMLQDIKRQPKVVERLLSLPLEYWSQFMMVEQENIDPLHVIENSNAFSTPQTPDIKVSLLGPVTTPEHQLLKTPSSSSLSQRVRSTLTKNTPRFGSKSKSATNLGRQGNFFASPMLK

Fatty acid synthase [8] = target: T2, Fatty acid synthase (Homo sapiens, UniProt P49327); assay: inhibition of human FAS-TE enzyme activity – biochemical, endpoint fluorescence intensity, uHTS hits, dose response (AID 624327); type: functional;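 also: fluorescence from hydrolysis of an O-methyl fluorescein acyl ester substrate by the enzyme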
Fatty acid synthase [9] = target: T2, Fatty acid synthase; assay: inhibition of human FAS-TE enzyme activity – biochemical, kinetic fluorescence intensity, dose response (AID 624326); type: functional;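 also: rate of fluorescence rise from hydrolysis of a fluorogenic O-methyl fluorescein ester substrate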
[10] = target: T3, Replicative DNA helicase DnaB (Mycobacterium tuberculosis, UniProt P9WMR3); assay: DnaB intein splicing inhibitors, dose response, biochemical, cell-free fluorescence (AID 449749); type: functional
T3 sequence (P9WMR3 whole entry): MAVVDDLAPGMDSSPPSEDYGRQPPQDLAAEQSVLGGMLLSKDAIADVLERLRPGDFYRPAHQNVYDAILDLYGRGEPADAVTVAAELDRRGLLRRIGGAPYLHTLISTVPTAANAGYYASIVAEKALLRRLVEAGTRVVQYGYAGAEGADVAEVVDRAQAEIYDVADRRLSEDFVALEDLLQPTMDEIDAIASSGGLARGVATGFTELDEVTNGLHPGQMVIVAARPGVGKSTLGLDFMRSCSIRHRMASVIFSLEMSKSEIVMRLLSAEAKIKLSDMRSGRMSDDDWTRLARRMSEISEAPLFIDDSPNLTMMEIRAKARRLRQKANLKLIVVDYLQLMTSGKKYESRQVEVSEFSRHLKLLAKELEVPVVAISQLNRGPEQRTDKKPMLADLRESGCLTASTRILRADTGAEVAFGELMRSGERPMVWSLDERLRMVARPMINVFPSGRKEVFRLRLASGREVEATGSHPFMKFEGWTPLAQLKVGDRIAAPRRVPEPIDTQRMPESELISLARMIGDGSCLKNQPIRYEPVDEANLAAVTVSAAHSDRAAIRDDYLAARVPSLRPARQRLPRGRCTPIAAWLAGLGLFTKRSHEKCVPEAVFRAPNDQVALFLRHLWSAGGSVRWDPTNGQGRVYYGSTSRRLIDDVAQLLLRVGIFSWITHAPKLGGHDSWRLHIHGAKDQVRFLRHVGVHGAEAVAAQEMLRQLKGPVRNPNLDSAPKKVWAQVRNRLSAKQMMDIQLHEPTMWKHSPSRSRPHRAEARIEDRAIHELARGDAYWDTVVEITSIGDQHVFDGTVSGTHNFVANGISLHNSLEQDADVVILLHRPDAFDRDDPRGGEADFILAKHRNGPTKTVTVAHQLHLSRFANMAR

Protein RecA = target: T4, Protein RecA (Mycobacterium tuberculosis, UniProt P9WHJ3); assay: Fluorescence Cell-Free Homogeneous Dose Retest to Identify Inhibitors of RecA-Intein Splicing Activity. [Related pubchem assays (depositor defined):AID2097, AID2223, AID489010, AID492950]; type: functional
T4 sequence (P9WHJ3 whole entry): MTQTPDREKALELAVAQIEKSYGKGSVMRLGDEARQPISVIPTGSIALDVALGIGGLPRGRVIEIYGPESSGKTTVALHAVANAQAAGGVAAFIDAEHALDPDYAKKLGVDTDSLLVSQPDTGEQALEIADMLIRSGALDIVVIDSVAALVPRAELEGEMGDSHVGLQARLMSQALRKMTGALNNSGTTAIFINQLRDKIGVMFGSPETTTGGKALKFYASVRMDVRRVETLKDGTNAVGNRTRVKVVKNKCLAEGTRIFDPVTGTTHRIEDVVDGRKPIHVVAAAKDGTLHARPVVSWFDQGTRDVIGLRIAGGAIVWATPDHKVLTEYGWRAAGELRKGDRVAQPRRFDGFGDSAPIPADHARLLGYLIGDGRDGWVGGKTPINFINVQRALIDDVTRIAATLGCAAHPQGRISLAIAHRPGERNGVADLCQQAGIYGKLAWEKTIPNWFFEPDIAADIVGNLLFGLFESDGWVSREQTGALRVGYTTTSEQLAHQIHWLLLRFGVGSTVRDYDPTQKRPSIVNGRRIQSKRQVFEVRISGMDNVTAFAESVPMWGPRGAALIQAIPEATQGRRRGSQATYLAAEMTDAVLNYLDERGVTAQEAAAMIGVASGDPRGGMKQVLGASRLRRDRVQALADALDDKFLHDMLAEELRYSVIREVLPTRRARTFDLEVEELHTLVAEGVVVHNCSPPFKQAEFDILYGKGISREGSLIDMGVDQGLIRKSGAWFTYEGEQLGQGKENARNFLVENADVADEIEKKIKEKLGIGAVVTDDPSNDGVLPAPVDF

[11] = target: T5, Heat shock factor protein 1 (Mus musculus, UniProt P38532); assay: enhancement of HSF1-driven luciferase signal – cell-based, NIH3T3, luminescence, dose retest, confirmation (AID 435004); type: functional;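 also: stress induced by proteasome inhibitor MG132 added 30 min after compound; luciferase reporter driven by HSF1 response element in NIH3T3 cells; actives raise luminescence as potentiators of the MG132 stress response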
T5 sequence (P38532 whole entry): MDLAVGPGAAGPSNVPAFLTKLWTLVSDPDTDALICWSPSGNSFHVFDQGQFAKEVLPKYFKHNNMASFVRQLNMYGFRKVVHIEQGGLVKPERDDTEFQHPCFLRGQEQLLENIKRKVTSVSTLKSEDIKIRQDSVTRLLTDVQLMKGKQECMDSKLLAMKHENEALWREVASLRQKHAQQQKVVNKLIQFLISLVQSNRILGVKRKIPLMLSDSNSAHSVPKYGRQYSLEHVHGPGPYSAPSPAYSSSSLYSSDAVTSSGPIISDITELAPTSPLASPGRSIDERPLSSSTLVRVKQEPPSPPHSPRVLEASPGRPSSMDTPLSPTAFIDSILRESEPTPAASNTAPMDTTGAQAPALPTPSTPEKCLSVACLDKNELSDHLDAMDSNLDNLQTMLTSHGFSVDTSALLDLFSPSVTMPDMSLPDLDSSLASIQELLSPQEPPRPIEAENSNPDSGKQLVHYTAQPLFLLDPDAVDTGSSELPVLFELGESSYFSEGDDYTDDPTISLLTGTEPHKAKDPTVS

Paired box protein Pax-8 = Paired box protein Pax-8 (Homo sapiens, UniProt Q06710); assay: PAX8 transcriptional activity inhibition in RMG-I – RMG-I cells, luciferase, cherry-pick, dose response (AID 687027); type: functional, cell-based;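 also: luciferase reporter driven by Pax8 target thyroperoxidase promoter measured by SteadyGlo luminescence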
[12] = P. falciparum Dd2 growth inhibitors, dose response, SYBR Green, cherry-picked samples (AID 1159567); type: functional, cell-based

Chain of FAD-linked sulfhydryl oxidase ALR (P55789 whole entry): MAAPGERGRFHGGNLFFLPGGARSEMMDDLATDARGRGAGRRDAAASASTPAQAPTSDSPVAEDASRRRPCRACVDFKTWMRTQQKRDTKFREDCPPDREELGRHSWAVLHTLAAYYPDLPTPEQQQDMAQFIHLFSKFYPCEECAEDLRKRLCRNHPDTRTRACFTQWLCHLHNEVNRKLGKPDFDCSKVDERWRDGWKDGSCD
T2 sequence (P49327 whole entry): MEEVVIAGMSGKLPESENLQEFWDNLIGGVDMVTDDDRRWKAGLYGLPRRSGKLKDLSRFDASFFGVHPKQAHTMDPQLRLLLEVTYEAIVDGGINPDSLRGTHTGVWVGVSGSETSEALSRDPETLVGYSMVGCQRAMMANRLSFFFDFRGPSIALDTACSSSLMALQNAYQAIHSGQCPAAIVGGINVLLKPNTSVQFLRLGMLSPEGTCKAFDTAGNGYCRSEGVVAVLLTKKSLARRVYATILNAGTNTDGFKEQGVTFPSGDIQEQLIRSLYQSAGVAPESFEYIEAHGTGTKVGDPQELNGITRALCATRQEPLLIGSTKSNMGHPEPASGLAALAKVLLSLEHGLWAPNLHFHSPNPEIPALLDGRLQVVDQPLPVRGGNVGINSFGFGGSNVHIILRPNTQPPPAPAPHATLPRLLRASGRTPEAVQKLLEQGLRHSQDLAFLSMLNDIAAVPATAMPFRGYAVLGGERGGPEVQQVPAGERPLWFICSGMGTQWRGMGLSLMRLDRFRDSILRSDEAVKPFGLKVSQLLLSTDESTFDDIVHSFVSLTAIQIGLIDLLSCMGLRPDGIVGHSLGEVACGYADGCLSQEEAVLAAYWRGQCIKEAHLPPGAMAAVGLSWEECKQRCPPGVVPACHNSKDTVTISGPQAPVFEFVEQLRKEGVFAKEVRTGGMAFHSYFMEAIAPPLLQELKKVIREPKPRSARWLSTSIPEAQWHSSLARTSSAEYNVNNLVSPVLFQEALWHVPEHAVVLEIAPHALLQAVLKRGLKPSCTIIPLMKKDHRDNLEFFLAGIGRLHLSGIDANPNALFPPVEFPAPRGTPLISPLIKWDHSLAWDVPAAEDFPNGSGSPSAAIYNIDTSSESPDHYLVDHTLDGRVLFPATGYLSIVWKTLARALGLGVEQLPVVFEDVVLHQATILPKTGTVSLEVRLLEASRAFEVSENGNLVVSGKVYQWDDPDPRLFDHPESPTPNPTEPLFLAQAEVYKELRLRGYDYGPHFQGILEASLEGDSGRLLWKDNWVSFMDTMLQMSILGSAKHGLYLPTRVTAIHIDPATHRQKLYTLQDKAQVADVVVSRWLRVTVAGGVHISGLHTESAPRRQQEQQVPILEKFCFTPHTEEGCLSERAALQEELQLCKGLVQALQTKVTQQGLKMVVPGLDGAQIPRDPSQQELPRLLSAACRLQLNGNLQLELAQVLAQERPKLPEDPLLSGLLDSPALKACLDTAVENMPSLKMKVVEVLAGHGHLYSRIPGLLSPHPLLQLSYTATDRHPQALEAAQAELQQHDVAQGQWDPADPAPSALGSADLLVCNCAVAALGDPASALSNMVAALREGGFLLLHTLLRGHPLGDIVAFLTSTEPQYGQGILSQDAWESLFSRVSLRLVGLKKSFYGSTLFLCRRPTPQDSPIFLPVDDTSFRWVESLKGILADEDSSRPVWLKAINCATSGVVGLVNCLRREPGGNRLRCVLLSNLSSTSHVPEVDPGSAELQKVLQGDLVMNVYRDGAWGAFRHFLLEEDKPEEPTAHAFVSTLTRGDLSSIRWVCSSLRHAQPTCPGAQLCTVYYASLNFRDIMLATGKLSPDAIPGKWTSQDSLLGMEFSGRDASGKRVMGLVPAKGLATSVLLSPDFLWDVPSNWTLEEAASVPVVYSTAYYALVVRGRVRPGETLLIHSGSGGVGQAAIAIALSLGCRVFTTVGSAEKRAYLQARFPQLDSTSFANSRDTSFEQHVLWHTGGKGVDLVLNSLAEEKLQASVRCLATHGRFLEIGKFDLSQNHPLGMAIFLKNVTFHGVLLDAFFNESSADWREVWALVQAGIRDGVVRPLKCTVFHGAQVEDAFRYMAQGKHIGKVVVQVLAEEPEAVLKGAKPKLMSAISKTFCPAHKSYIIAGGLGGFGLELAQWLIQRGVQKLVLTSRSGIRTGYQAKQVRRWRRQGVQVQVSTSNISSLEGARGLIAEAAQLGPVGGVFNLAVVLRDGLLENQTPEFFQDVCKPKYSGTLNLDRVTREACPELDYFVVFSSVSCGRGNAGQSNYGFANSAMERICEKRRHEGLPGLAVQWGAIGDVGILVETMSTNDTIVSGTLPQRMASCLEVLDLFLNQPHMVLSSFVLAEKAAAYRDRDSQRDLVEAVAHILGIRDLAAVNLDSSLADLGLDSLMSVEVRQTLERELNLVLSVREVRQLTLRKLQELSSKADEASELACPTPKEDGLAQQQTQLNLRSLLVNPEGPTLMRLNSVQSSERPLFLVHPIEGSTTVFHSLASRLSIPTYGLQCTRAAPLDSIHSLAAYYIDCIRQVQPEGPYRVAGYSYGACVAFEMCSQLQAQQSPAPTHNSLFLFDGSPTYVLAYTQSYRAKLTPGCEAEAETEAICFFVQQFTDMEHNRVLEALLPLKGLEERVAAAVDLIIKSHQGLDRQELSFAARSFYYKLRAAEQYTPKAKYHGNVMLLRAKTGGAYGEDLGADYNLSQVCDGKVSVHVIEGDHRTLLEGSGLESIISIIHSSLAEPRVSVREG
Chain of Paired box protein Pax-8 (Q06710 whole entry): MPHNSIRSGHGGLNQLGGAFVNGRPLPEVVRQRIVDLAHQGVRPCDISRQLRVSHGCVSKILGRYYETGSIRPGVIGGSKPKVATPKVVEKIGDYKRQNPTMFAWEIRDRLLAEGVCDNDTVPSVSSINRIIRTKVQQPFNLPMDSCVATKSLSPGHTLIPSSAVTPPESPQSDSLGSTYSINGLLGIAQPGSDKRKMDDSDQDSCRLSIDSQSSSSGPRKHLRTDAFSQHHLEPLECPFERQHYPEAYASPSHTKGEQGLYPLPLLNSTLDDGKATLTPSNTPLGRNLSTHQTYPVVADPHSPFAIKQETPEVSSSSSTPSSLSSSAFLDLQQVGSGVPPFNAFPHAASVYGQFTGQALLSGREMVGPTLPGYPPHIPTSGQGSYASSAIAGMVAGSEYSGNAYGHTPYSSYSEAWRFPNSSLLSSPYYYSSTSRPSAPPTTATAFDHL
Chain of Luciferin 4-monooxygenase (P08659 whole entry): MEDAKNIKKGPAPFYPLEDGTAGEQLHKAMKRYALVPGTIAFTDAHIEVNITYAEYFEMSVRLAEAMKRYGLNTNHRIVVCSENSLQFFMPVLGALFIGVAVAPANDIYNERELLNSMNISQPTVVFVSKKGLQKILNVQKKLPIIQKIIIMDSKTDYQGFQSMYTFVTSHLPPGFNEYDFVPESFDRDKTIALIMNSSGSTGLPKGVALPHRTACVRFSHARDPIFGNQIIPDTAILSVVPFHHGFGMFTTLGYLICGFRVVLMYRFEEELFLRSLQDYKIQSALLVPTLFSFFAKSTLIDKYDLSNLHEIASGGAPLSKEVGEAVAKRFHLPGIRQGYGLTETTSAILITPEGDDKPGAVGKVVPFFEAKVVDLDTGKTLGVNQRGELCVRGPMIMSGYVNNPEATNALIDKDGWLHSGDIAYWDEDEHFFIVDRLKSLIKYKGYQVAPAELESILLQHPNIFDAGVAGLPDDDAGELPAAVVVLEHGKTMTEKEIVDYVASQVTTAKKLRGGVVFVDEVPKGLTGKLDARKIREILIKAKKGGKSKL

Cc1cc(C)c2c(c1)cc(C)c1nnc(SCC(=O)N3CCCc4ccccc43)n12
CC50 [1]: 44.2 µM (active)

COc1cccc(-c2nc(-c3ccc(C(=O)O)cc3)no2)c1
EC50 [2]: 0.794 µM (active) | EC50 [3]: 4.03 µM (active)

CC(C(=O)NC1C=CS(=O)(=O)C1)N1C(=O)/C(=C\c2ccccc2)SC1=S (stereo unspecified)
AC50 [4]: 0.359 µM (active)

CCC1(c2ccc(Cl)cc2)N=C(S)N(c2ccccc2)N1 (stereo unspecified)
EC50 [5]: 14.2 µM (active)

CCOC(=O)c1ccc2[nH]c3c(c2c1)CCCC3O (stereo unspecified)
CC50 [1]: 47.1 µM (active)

Cc1ccc2oc(-c3cccc(NC(=O)Cn4cnc5c(=O)n(C)c(=O)n(C)c54)c3)nc2c1
EC50 [6]: 42.3 µM (active) | EC50 (H4): 6.94 µM (active)

CC(=O)Nc1ccc(N2C(=O)CSC2c2ccc(F)cc2)cc1 (stereo unspecified)
AC50 [4]: < 0.005 µM (active)

CCN(CC)c1ccc(NS(=O)(=O)c2ccc3c(c2)oc(=O)n3C)c(C)c1
AC50 [4]: 0.409 µM (active)

O=C1NC(=O)N(c2ccc(C(=O)O)cc2)C(=O)/C1=C/c1c[nH]c2ccccc12
AC50 [4]: 0.177 µM (active) | IC50 [7]: 97.5 µM (active)

CC(C(=O)NCCc1ccccc1)N1c2cccc3cccc(c23)S1(=O)=O (stereo unspecified)
CC50 [1]: 45.6 µM (active)

CCN(CC)c1ccc(NS(=O)(=O)c2ccc(OC)cc2)cc1
AC50 [4]: 5.11 µM (active)

Cc1ccc(/C=C/c2ccc(=O)n(Cc3ccc(F)cc3)n2)cc1
IC50 (Fatty acid synthase [8]): 11.8 µM (active) | IC50 (Fatty acid synthase [9]): 14 µM (active)

Cc1cccc(NNC(=O)C(=O)NNc2cccc(C)c2)c1
EC50 [5]: 2.38 µM (active)

CC(=O)Nc1sc(NC(=O)c2ccccc2)nc1-c1cccs1
AC50 [4]: 3.14 µM (active)

COc1ccc(-c2ncc3ccccn23)cc1
EC50 [6]: 101 µM (active) | EC50 (H4): 32.1 µM (active)

COc1ccc(C(=O)CN(CCC(=O)O)S(=O)(=O)c2ccc([N+](=O)[O-])cc2)cc1
IC50 (Fatty acid synthase [8]): 3.51 µM (active) | IC50 (Fatty acid synthase [9]): 6.15 µM (active)

COc1ccc(-c2cc(-c3ccccc3O)[nH]n2)cc1OC
CC50 [1]: > 50 µM (active)

Cc1onc(-c2ccccc2)c1C(=O)n1nnc2ccccc21
AC50 [10]: 7.85 µM (active) | EC50 (Protein RecA): 13 µM (active) | IC50 (Fatty acid synthase [8]): 12.9 µM (active) | IC50 (Fatty acid synthase [9]): 10.3 µM (active)

O=[N+]([O-])c1ccc(CSc2ccc(S(=O)(=O)N3CCCC3)cn2)cc1
IC50 (Fatty acid synthase [8]): 12.1 µM (active) | IC50 (Fatty acid synthase [9]): 10.6 µM (active)

Cc1c(Br)c([N+](=O)[O-])nn1CC(=O)N1CCc2ccccc2C1
IC50 (Fatty acid synthase [8]): 4.38 µM (active) | IC50 (Fatty acid synthase [9]): 6.67 µM (active)

COc1ccc(N2CCN(C(=O)c3ccc(-n4nc(C)cc4C)cc3)CC2)cc1
CC50 [1]: 42 µM (active)

O=C(Cc1ccc(Cl)cc1)Nc1ccc(Br)cc1
EC50 [5]: > 150 µM (inconclusive)

CC(OC(=O)c1cccc([N+](=O)[O-])c1)C(=O)N1CCc2ccccc21 (stereo unspecified)
IC50 (Fatty acid synthase [8]): 3.92 µM (active) | IC50 (Fatty acid synthase [9]): 3.98 µM (active)

CC[C@@H]1[C@H]2CCCC(=O)N3CC[C@@H](C[C@@H]1Nc1ccccc1)[C@@H]23
EC50 [11]: > 260 µM (inactive) | AC50 [4]: 0.008 µM (active)

O=C(COC(=O)c1cc([N+](=O)[O-])ccc1N1CCOCC1)c1ccccc1
IC50 (Fatty acid synthase [8]): 9.63 µM (active) | IC50 (Fatty acid synthase [9]): 6.51 µM (active)

CCCC(C)C1c2c(c(C)c(C)oc2=O)Oc2c(C)c(C)oc(=O)c21 (stereo unspecified)
IC50 (Fatty acid synthase [8]): 9.33 µM (active) | IC50 (Fatty acid synthase [9]): 8.38 µM (active)

CCS(=O)(=O)N1CCN=C1SCc1cccnc1
AC50 [4]: 2.06 µM (active)

O[C@H]1C[C@H](c2ccccc2)N(CC2CCCCC2)C[C@@H]1n1cc(C2CC2)nn1
IC50 (Fatty acid synthase [8]): 8.28 µM (active) | IC50 (Fatty acid synthase [9]): 6.52 µM (active)

COc1ccc(C2=NC(c3ccccc3)CO2)cc1 (stereo unspecified)
EC50 [6]: 39.5 µM (active)

CCCN(C)C[C@H]1OCCCC[C@@H](C)Oc2ccc(NC(=O)Nc3ccc(C(F)(F)F)cc3)cc2C(=O)N([C@H](C)CO)C[C@H]1C
AC50 (Paired box protein Pax-8): 23.1 µM (active)

CN(C)c1ccc(/C=N/NC(=O)CNC(=O)c2ccncc2)cc1
AC50 [4]: 3.61 µM (active)

CCOC(=O)N/N=C1\CCc2ccccc21
EC50 [6]: 7.73 µM (active) | EC50 (H4): 11.7 µM (active)

CCS(=O)(=O)N1CCC2(CC1)CN(C(=O)Nc1cccc(F)c1)[C@H](CO)c1c2c2ccc(OC)cc2n1C
AC50 [12]: 4.52 µM (active)

CCCc1cn([C@@H]2C[C@@H]3O[C@H](CO)CC[C@@H]3O[C@@H]2CCc2ccc(-c3cccc(OC)c3)cc2)nn1
AC50 [12]: 2.81 µM (active)
